Test results as given in patent publication US11549147B2, “Treatment of atopic dermatitis with tradipitant” (VANDA PHARMACEUTICALS INC., priority 2017, dated 2023).
“And” between values parts separate entries of the source, which are not always exact repeats. Identical values can stand only once.

Legend:
Type in all cases: in vivo, human
[1] = test system: chronic pruritus associated with atopic dermatitis; assay: Phase II randomized double-blind placebo-controlled study NCT02651714 (Example 3); design: key to average itch VAS, difference / worst itch VAS, difference: VAS in mm, 0-100 mm scale; key to Average Itch VAS / worst Itch VAS: change in VAS, mm on 0-100 mm scale; CGI-C / SKINDEX-16 / Worst Itch NRS Night / worst itch NRS night, difference / CGIC, difference: scale not given here
Method: A phase II, multicenter, randomized, double-blind, placebo-controlled clinical study (“Tradipitant in Treatment-resistant Pruritus Associated with Atopic Dermatitis,” clinicaltrials.gov Study ID NCT02651714) is conducted to determine the efficacy of tradipitant relative to placebo in reducing chronic pruritus as measured by the VAS.
Inclusion criteria for the study include chronic (≥6 weeks) itch related to AD that is refractory to treatment by patient history, average itch score by VAS of ≥70 mm (out of 100 mm), verbal response score (VRS) of ≥3 on at least one of the past three days prior to randomization, and a SCORAD of <80.
Patients are randomized to receive either 85 mg of tradipitant or placebo (1:1) bid. The design for the randomized, placebo-controlled, double-blind study is depicted in FIG. 3. Individuals with chronic pruritus associated with AD are administered 85 mg of tradipitant bid or placebo for eight weeks. Average itch severity and worst itch severity are assessed by VAS, and VRS is assessed every two weeks. In addition, treatment is assessed biweekly using both the objective and subjective SCORing Atopic Dermatitis (SCORAD) Index (Severity Scoring of Atopic Dermatitis: The SCORAD Index, Consensus Report of the European Task Force on Atopic Dermatitis, Dermatology 1993; 186:23-31) and the Eczema Area and Severity Index (EASI) (Hanifin et al., The eczema area and severity index (EASI): assessment of reliability in atopic dermatitis, Experimental Dermatology 10(1):11-18 (2001)). The Clinical Global Impressions of Change (CGI-C) scale, the Patient Global Impression of Change (PGIC) scale with respect to both itch and AD, the Patient Benefit Index (PBI), and SKINDEX-16 scales are also used for assessments. Twice daily questionnaires are completed to report worst and average itch by numeric rating scale (NRS).
The objective SCORAD assessment includes parameters including extension, intensity, excoriations, erythema, oozing or crusting, the presence of edema or papules, lichenification, and skin dryness. The subjective SCORAD assessment includes patient assessments of itch and insomnia.

[2] = test system: chronic pruritus in patients with atopic dermatitis; assay: Phase II proof of concept study VP-VLY-686-2101: tradipitant monotherapy vs placebo (Example 1); design: key to VAS Worst change / VAS Worst change, Diff / VAS Average change / VAS Average change, Diff: VAS points in mm; VRS change / VRS change, Diff / FBI / FBI, Diff / CGIC / CGIC, Diff: scale not given here; conditions: for CGIC / DLQI change / FBI / SCORAD change / VAS Average change / VAS Worst change / VRS change: 100 mg qd evening; for CGIC, Diff / DLQI change, Diff / FBI, Diff / SCORAD change, Diff / VAS Average change, Diff / VAS Worst change, Diff / VRS change, Diff: Diff tradipitant vs placebo
Method: A phase II proof of concept clinical study (Study ID VP-VLY-686-2101, “Proof of Concept of VLY-686 in Subjects With Treatment-Resistant Pruritus Associated With Atopic Dermatitis”) is conducted, investigating the safety and efficacy of tradipitant as a monotherapy in the treatment of chronic pruritus in patients with atopic dermatitis.
In the study, patients with a Visual Analog Scale (VAS) score of greater than 70 mm during one of the two days preceding inclusion into the study are randomized to receive orally either 100 mg of tradipitant (n=34) or placebo (n=35) once a day in the evening. In the tradipitant arm of the study, tradipitant is orally administered to patients in capsules with standard excipients in an amount of 100 mg in the evening. Clinical assessments are made after 3 or 4 weeks of daily treatment, or at both 3 weeks and 4 weeks, each assessment being done in the morning of the day after last treatment or in the afternoon of the day after last treatment. The tradipitant is administered in an immediate release form comprising tradipitant and pharmaceutically acceptable excipients in a capsule. The tradipitant particle size is approximately: D10: <5 um, D50: <10 um, and D90: <25 um, wherein Dio means that 10% of the particles are of the indicated mean particle size, D50 means that 50% of the particles are of the indicated mean particle size, and D90 means that 90% of the particles are of the indicated mean particle size.
Baseline VAS scores are 76.1 and 77.2 for the tradipitant and placebo arms respectively. Efficacy is evaluated through a number of clinical research instruments. In addition, at the time of efficacy evaluation blood samples are collected for PK analysis in order to determine the plasma levels of tradipitant.

[3] = test system: change of Worst Itch (VAS) in patients suffering from atopic dermatitis; assay: INADL variants modifying change of Worst Itch (VAS) in the treated cohort (Example 6, Table 12)
Excerpt: In addition, within the treated cohort described herein in Example 4, Table 6, the top loci identified as modifying change of Worst Itch (VAS) are variants located within INADL gene, shown below in Table 12.

[4] = ITT population, 85 mg bid, week 8
[5] = categorical, ITT, 85 mg bid, week 8
[6] = difference tradipitant vs placebo, 85 mg bid, week 8

O=C(c1ccccc1Cl)c1cccnc1-c1nnn(Cc2cc(C(F)(F)F)cc(C(F)(F)F)c2)c1-c1ccncc1 [Tradipitant]
time at which treatment effects in both itch and disease severity are evident ([1]; 85 mg bid): 2 Week | clinical features of severity of atopic dermatitis, including excoriation, erythema, oozing and dryness ([1]; 85 mg bid vs placebo): significant improvements | Average Itch VAS [1, 4]: −41.5 | CGI-C [1, 4]: 2.6 | PBI [1, 4]: 1.7 and 1.72 | PGI-C AD [1, 4]: 2.7 and 2.74 | PGI-C Itch [1, 4]: 2.6 and 2.56 | SKINDEX-16 [1, 4]: −34.8 | Worst Itch NRS Night [1, 4]: −3.4 | Worst itch NRS day [1, 4]: −3.3 | worst Itch VAS [1, 4]: −44.2 | Worst itch VAS ≥30 (responders) ([1]; categorical, ≥30 points improvement from baseline, ITT, 85 mg bid, week 8): 56.60% | Worst itch VAS ≥40 (responders) ([1]; categorical, ≥40 points improvement from baseline, ITT, 85 mg bid, week 8): 52.6% | EASI ≥75% (patients with 75% or greater improvement) [1, 5]: 21.1% | SCORAD ≥50% (patients with 50% or greater improvement) [1, 5]: 44.0% | CGIC, difference [1, 6]: −0.7 | EASI ≥75%, difference [1, 6]: 10.0% | PBI, difference [1, 6]: 0.48 | PGIC AD, difference [1, 6]: −0.71 | PGIC itch, difference [1, 6]: −0.6 | SCORAD total, difference [1, 6]: −7.68 | SCORAD ≥50%, difference [1, 6]: 23.2% | average itch VAS, difference [1, 6]: −5.7 | objective SCORAD, difference [1, 6]: −6.1 | subjective SCORAD, difference [1, 6]: −1.43 | worst itch NRS day, difference [1, 6]: −0.81 | worst itch NRS night, difference [1, 6]: −1.05 | worst itch VAS (≥40), difference [1, 6]: 17.9% | worst itch VAS, difference [1, 6]: −13.6 | adverse event profile ([2]; 100 mg qd): mild and similar to placebo | tolerability ([2]; 100 mg qd): well-tolerated | endpoints corresponding to the underlying disease (SKINDEX, SCORAD objective, EASI and DLQI) vs placebo ([2]; 100 mg qd, 4-week study): do not show any significant difference from placebo | CGIC ([2]; AM group, 3-4 weeks): 2.46 | DLQI change ([2]; AM group, 3-4 weeks): −2.52 | FBI ([2]; AM group, 3-4 weeks): 1.47 | SCORAD change ([2]; AM group, 3-4 weeks): −9.58 | VAS Average change ([2]; AM group, 3-4 weeks): −54 | VAS Worst change ([2]; AM group, 3-4 weeks): −47.9 | VRS change ([2]; AM group, 3-4 weeks): −1.46 | CGIC, Diff ([2]; AM group): −1.15 | DLQI change, Diff ([2]; AM group): 0.35 | FBI, Diff ([2]; AM group): 0.74 | SCORAD change, Diff ([2]; AM group): −5.23 | VAS Average change, Diff ([2]; AM group): −23.7 | VAS Worst change, Diff ([2]; AM group): −21.9 | VRS change, Diff ([2]; AM group): −0.79 | CGIC, Diff ([2]; PM group): 0.19 | DLQI change, Diff ([2]; PM group): −1.89 | FBI, Diff ([2]; PM group): −0.39 | SCORAD change, Diff ([2]; PM group): 0.88 | VAS Average change, Diff ([2]; PM group): 5.82 | VAS Worst change, Diff ([2]; PM group): 8.99 | VRS change, Diff ([2]; PM group): −0.13 | CGIC ([2]; PM group, 3-4 weeks): 2.47 | DLQI change ([2]; PM group, 3-4 weeks): −5.45 | FBI ([2]; PM group, 3-4 weeks): 1.01 | SCORAD change ([2]; PM group, 3-4 weeks): −6.29 | VAS Average change ([2]; PM group, 3-4 weeks): −28.8 | VAS Worst change ([2]; PM group, 3-4 weeks): −32.3 | VRS change ([2]; PM group, 3-4 weeks): −1.29 | improvement from baseline on 100 mm unit Visual Analog Scale (VAS) for itch ([2]; all patients, 100 mg once a day in the evening, 3-4 weeks): 40.5 mm | Genotype associated with worse Worst Itch (VAS) response ([3]; INADL SNP rs370530530, minor allele CT, major allele C, treated cohort): CTCT | response as measured by change of Worst Itch (VAS), by genotype ([3]; INADL rs11207834 TT genotype): itch scale improvement | response as measured by change of Worst Itch (VAS), by genotype ([3]; INADL rs11207834 minor allele, 85 mg bid): decreased response to treatment
